ChEMBL document CHEMBL1201862, “PubChem BioAssay data set” (2004)
The source made the active and inactive calls.

Experiments:
Cytochrome P450 2C9 = Cytochrome P450 2C9 (Homo sapiens, UniProt P11712)
Cytochrome P450 1A2 = molecular target: T1, Cytochrome P450 1A2 (Homo sapiens, UniProt P05177);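 further: PubChem cytochrome P450 panel assay, CYP1A2 panel member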
T1 sequence (P05177 whole entry): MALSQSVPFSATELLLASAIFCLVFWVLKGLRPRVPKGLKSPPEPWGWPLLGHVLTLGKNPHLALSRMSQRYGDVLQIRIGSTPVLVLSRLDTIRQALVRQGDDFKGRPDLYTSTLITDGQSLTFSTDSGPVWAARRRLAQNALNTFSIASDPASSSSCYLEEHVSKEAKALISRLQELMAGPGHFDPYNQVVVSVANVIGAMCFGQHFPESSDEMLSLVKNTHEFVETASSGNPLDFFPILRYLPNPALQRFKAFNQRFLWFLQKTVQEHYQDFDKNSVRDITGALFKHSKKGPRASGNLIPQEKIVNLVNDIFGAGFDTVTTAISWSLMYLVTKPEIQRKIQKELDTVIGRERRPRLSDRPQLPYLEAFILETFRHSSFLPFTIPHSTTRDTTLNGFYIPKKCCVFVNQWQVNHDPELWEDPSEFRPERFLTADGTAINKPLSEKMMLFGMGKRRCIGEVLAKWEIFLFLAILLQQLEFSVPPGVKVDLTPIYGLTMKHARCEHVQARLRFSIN

Cytochrome P450 2D6 = Cytochrome P450 2D6 (Homo sapiens, UniProt P10635);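 further: CYP2D6 member of a cytochrome P450 panel assay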
Cytochrome P450 2D6, sequence (P10635 whole entry): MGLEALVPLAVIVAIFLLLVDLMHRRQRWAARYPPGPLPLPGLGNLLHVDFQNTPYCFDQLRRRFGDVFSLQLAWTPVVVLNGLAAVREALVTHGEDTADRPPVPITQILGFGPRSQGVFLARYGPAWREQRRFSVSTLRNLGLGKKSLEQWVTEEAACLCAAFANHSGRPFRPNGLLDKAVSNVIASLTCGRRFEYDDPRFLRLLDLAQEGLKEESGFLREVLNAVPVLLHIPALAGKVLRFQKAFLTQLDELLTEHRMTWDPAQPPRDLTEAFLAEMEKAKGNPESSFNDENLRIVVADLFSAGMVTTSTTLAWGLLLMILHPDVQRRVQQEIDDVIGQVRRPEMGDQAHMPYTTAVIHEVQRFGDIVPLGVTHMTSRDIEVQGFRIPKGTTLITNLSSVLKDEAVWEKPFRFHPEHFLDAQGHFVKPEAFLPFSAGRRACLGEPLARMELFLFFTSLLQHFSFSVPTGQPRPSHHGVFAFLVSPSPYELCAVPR

Cytochrome P450 3A4 = Cytochrome P450 3A4 (Homo sapiens, UniProt P08684);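 further: CYP3A4 tested as one member of a cytochrome P450 panel screen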
Cytochrome P450 3A4, sequence (P08684 whole entry): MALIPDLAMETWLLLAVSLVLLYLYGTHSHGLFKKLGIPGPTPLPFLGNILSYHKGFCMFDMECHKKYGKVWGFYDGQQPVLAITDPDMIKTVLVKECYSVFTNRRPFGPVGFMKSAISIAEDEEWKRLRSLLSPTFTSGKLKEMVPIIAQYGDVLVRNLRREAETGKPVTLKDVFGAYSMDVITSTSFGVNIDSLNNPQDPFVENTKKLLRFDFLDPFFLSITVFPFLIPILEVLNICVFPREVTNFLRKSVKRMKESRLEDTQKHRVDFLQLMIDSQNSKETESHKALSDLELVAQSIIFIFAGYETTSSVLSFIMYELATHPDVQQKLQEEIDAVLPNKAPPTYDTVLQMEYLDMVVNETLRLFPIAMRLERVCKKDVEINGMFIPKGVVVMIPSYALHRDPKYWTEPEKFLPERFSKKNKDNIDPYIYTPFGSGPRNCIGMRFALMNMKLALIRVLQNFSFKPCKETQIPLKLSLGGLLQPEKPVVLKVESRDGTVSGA

Cytochrome P450 2C19 = Cytochrome P450 2C19 (Homo sapiens, UniProt P33261); test: Cytochrome panel assay with activity outcomes. Panel member name: p450-cyp2c19 Compounds with AC50 equal or less than 10 uM are considered active; format: functional
Cytochrome P450 2C19, sequence (P33261 whole entry): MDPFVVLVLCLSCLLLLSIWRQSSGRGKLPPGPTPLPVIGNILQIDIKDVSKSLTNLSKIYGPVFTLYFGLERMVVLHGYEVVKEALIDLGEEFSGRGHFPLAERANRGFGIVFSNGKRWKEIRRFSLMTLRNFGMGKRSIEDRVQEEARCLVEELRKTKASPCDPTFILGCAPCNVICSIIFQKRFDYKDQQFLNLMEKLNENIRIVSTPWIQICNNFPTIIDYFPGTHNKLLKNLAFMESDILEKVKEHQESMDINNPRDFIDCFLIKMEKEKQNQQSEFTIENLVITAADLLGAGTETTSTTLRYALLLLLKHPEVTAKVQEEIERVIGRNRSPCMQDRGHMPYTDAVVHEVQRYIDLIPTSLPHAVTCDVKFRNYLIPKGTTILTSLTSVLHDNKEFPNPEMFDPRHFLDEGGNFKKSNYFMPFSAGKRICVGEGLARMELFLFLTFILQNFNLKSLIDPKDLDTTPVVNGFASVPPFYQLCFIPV

[1] = molecular target: FAD-linked sulfhydryl oxidase ALR (Homo sapiens, UniProt P55789); test: inhibitors of human ALR sulfhydryl oxidase, dose response, biochemical, H2O2 detection, luminescence, cherry-pick (AID 493248)
FAD-linked sulfhydryl oxidase ALR, sequence (P55789 whole entry): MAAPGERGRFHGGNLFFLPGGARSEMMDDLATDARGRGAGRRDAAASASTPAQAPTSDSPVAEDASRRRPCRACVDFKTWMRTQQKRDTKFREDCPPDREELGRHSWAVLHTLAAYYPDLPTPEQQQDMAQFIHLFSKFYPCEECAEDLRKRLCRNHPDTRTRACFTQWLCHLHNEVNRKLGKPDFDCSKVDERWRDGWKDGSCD

[2] = system: Streptococcus sp. 'group A'; test: growth inhibition of control SK(-) GAS strain, dose response, counter-screen for streptokinase expression inhibitor project, luminescence, kanamycin, BacTiterGlo, confirmation (AID 1900); format: functional, organism-based
Streptococcus = test: Group A Streptococcus viability loss, dose response, counter-screen for streptokinase expression inhibitor project, luminescence, BacTiterGlo (AID 1915); format: functional, organism-based;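 further: potency for reduction of bacterial viability or growth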
Streptokinase A = molecular target: T2, Streptokinase A (Streptococcus pyogenes serotype M1, UniProt P10520); test: S. pyogenes streptokinase expression inhibitors, potency, dose response, plasminogen activation absorbance, OD405 (AID 1914); format: functional, Streptococcus pyogenes M1 GAS;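 further: secreted streptokinase activity via plasminogen activation per viability signal from cell pellet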
T2 sequence (P10520 whole entry): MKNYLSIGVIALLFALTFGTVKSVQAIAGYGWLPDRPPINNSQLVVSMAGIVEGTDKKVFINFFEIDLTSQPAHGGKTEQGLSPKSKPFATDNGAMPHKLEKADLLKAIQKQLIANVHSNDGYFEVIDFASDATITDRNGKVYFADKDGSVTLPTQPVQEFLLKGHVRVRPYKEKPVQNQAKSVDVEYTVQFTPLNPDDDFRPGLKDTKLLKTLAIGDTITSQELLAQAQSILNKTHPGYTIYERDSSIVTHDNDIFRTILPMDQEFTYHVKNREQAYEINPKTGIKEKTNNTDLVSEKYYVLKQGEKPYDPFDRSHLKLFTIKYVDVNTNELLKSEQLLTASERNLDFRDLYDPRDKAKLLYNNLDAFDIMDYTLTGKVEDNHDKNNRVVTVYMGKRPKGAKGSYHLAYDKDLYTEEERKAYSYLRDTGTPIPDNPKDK

[3] = molecular target: T3, Corticotropin-releasing factor receptor 2/Corticotropin-releasing factor-binding protein (Homo sapiens, UniProt P24387+Q13324); test: activators of CRF receptor 2 with binding protein – uHTS hits, confirmation (AID 602473); format: functional; conditions: read-out: EC50_Mean
T3 sequence (Q13324 whole entry): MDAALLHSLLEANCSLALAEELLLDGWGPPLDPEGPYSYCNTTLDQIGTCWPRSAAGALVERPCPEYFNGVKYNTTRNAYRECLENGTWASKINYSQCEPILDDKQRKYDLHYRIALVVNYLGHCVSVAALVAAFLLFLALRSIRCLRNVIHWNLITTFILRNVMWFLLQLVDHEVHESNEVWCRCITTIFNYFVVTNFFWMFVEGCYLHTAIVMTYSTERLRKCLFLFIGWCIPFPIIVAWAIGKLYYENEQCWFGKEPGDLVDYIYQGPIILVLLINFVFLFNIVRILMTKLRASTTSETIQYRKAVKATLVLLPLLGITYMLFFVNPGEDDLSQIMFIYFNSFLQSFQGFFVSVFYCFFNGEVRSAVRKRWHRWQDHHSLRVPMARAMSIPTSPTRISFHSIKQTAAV
T3 sequence (P24387 whole entry): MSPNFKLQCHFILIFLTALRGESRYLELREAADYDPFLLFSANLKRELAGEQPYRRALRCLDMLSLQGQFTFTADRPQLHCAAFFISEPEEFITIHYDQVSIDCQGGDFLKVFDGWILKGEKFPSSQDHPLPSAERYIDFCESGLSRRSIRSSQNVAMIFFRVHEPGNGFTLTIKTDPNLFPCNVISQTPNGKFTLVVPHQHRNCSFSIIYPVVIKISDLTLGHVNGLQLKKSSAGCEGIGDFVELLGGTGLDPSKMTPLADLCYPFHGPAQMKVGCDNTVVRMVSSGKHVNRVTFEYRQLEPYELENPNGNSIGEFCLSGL

[4] = molecular target: T3, Corticotropin-releasing factor receptor 2/Corticotropin-releasing factor-binding protein; test: Dose Response confirmation of uHTS hits for small molecule antagonists of the CRF-binding protein and CRF-R2 receptor complex.; format: functional; conditions: read-out: IC50_Mean
Paired box protein Pax-8 = Paired box protein Pax-8 (Homo sapiens, UniProt Q06710); test: inhibitors of PAX8-driven TPO luciferase reporter, dose response, RMG-I cells, cherry-pick (AID 687027); format: functional, cell-based;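 further: luciferase reporter driven by Pax8 target thyroperoxidase promoter measured by SteadyGlo luminescence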
Paired box protein Pax-8, sequence (Q06710 whole entry): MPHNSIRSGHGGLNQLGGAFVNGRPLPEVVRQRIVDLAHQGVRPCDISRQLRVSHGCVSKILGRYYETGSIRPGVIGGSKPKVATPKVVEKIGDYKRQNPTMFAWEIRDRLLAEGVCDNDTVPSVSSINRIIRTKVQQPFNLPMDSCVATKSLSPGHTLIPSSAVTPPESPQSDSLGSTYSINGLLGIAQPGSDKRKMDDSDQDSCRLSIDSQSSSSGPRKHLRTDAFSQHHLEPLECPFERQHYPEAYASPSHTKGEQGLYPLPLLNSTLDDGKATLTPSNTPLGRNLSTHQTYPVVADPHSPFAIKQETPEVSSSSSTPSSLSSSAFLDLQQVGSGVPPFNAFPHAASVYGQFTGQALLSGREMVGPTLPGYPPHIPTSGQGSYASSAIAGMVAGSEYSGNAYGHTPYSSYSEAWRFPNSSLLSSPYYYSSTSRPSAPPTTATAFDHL

Cytochrome P450 2C9, sequence (P11712 whole entry): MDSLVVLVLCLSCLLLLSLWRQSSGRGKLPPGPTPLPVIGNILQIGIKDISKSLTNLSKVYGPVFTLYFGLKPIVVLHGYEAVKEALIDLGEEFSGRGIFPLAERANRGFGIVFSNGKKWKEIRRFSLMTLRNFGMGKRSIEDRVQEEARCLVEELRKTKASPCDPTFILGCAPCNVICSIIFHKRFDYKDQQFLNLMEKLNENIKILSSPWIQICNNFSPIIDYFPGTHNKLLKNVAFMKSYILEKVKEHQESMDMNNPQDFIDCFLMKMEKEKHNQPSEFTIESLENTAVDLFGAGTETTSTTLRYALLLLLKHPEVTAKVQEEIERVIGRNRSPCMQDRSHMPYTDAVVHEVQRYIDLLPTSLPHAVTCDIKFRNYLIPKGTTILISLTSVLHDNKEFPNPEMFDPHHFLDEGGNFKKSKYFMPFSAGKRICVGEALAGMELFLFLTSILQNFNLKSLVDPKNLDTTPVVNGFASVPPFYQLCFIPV

COc1cc(NC(=O)c2ccccc2Cl)ccc1NC(=O)c1ccco1
AC50 (Cytochrome P450 2C9): 1.12 µM (inconclusive)
AC50 (Cytochrome P450 1A2): 17.8 µM (inconclusive)
AC50 (Cytochrome P450 2D6): 22.4 µM (inconclusive)

COc1ccc(Cc2nnc(NC(=O)c3ccc(Cl)c([N+](=O)[O-])c3)s2)cc1
AC50 (Cytochrome P450 2C9): 1.41 µM (inconclusive)
AC50 (Cytochrome P450 3A4): 0.631 µM (inconclusive)

CCN(CC)CCCNC(=O)C1CCC(=O)N(c2ccc(OC)cc2)C1c1ccc(F)cc1 (centres undefined)
AC50 (Cytochrome P450 2C9): 39.8 µM (inconclusive)
AC50 (Cytochrome P450 2C19): inconclusive

N#Cc1ccc(CN2CC[C@@]3(CCCN(C(=O)c4ccncc4)C3)C2)cc1
AC50 (Cytochrome P450 2C9): 31.6 µM (inconclusive)
AC50 (Cytochrome P450 1A2): 39.8 µM (inconclusive)
AC50 (Cytochrome P450 2D6): 20 µM (inconclusive)

CCN(CC)C(=O)c1csc(Nc2ccc(C)cc2)n1
AC50 [1]: 5.19 µM (active)

CCCCOc1ccc(C(=O)N/C(=C\c2cccc([N+](=O)[O-])c2)C(=O)OCCC)cc1
AC50 (Cytochrome P450 2C9): 0.708 µM (inconclusive)

CCOC(=O)c1cnn(-c2nc(-c3cccc(F)c3)cs2)c1C(F)(F)F
EC50 [2]: 9.99 µM (active)
EC50 (Streptococcus): 17.6 µM (active)
EC50 (Streptokinase A): 20.8 µM (active)

Oc1cccc2ccc(/C=C/c3c(F)cccc3Cl)nc12
EC50 [2]: 0.589 µM (active)
EC50 (Streptococcus): 32.2 µM (active)
EC50 (Streptokinase A): > 150 µM (not active)

O=C(Cc1ccccc1)NNc1c2ccccc2nc2ccccc12
AC50 [1]: 2.43 µM (active)

CC(C)c1ccc(CNc2cc(N3CCCC3)ccc2[N+](=O)[O-])cc1
AC50 (Cytochrome P450 2C9): 2.24 µM (inconclusive)

CCOC(=O)c1sc(NC(=O)CSc2n[nH]c(-c3ccncc3)n2)c(C#N)c1C
EC50 [3]: 8.57 µM (active)
IC50 [4]: 16.3 µM (active)

CCC1=C(C[C@H]2NCCc3cc(OC)c(OC)cc32)C[C@H]2c3ccccc3CCN2C1
AC50 (Cytochrome P450 2C9): 3.16 µM (inconclusive)
AC50 (Cytochrome P450 3A4): 3.16 µM (inconclusive)

Cc1cccc(-n2c(-c3ccoc3C)n[nH]c2=S)c1
AC50 [1]: 7.34 µM (active)

Cc1ccccc1N=Nc1c(N)n[nH]c1N
AC50 [1]: 5.72 µM (active)

CNS(=O)(=O)c1cnccc1N1CCN(c2cccc(C)c2)CC1
AC50 [1]: < 0.005 µM (active)

CC1=CN2C(=NC(=O)CC2(C)C(=O)N(CC(=O)NC2CCCC2)c2ccccc2C)C=C1 (centres undefined)
EC50 [3]: > 53 µM (inactive)
IC50 [4]: > 47.1 µM (inactive)

CNc1ccc(C2(O)C(=O)c3ccccc3C2=O)cc1
AC50 [1]: 0.664 µM (active)

Oc1[nH]ncc1/C=N/c1ccc(Cl)cc1
EC50 [3]: > 53 µM (inactive)
IC50 [4]: > 47.1 µM (inactive)

C[C@@H]1CN([C@H](C)CO)C(=O)c2cc(NS(=O)(=O)c3ccc(Cl)cc3)ccc2O[C@@H](C)CCCCO[C@H]1CN(C)C(=O)C1CCCCC1
AC50 (Paired box protein Pax-8): 15.8 µM (active)

COc1ccc(CC(=O)N/N=C(\C)CC(=O)Nc2ccc(N(C)C)cc2)cc1
AC50 [1]: 2.04 µM (active)

CC/C(=N\NC(=S)Nc1cc(C)ccc1C)c1ccc(OC(F)F)cc1
EC50 [2]: 6.27 µM (active)
EC50 (Streptococcus): 11.8 µM (active)
EC50 (Streptokinase A): > 150 µM (not active)

CN(C)c1ccc(/C=N/NC(=O)c2ccc3c(c2)OCO3)cc1
AC50 [1]: 4.72 µM (active)

Sc1nnc(-c2ccccc2)c(-c2ccccc2)n1
AC50 [1]: 0.567 µM (active)
